The record followed here is patent US20250179059A1 (The Regents of the University of California, priority 2021, published 2025).

Test [1] deals with human SKM-1 acute myeloid leukemia cells. Nature of the test: SKM-1 antiproliferation cell-based assay (ATPlite). In short, it runs like this:
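Log-phase cells in RPMI 1640/15% FBS were seeded at 34722 cells/mL and exposed for 4 days to nine-concentration DMSO serial dilutions in triplicate. Viability was read as ATP luminescence (ATPlite 1step), and IC50 values came from variable-slope non-linear regression.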

Test [2] addresses T1, human BRD4 bromodomain II (Homo sapiens, UniProt O60885).
T1 construct: human BRD4 bromodomain II [based on Genbank NM_058243, residues 349-460]; host or cells: E. coli
Kind of test: Bromodomain binding assay (AlphaScreen), BRD4 BDII. In short, it runs like this: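 Read-out is AlphaScreen signal (ex 680 nm, em 520-620 nm) from streptavidin donor beads on a biotinylated acetylated histone H4 (aa 1-21) peptide and nickel acceptor beads on the His6-tagged bromodomain. IC50 values come from curve fits of percentage peptide binding against compound concentration.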

The mark [3] stands for this setting: Homo sapiens, SKM-1, 96 h, SKM-1 antiproliferation assay, 4 days, Table C2.
[4] abbreviates: AlphaScreen assay, Table C2, read-out: BRD4 BDII IC50.
[5] abbreviates: Homo sapiens, SKM-1, SKM-1 antiproliferation assay.
[6] abbreviates: BRD4 BDII AlphaScreen assay, read-out: BRD4 BD2 IC50.

Structures are written as SMILES. Like-named read-outs stand apart in the source and are kept apart here.

As a reminder, the GI50 is the concentration giving 50% growth inhibition. The low end stands for greater sensitivity of the cells, the high end for lower sensitivity of the cells. Usually IC50 stands for the concentration at which inhibition is half-maximal. For the compound `[2H]C([2H])([2H])n1ccn(-c2ccc(-c3cc(F)cc(-c4ccnc(N5CCN[C@H](C)C5)c4)c3O)cc2Cl)c1=O` [Example 453, (R)-1-(3-chloro-5′-fluoro-2′-hydroxy-3′-(2-(3-methylpiperazin-1-yl)pyridin-4-yl)-[1,1′-biphenyl]-4-yl)-3-deuteromethyl-1H-imidazol-2(3H)-one], in test [1] (setting [3]), the GI50 was 0.3 to 30 nM. Further, the half-inhibitory concentration (IC50) in test [2] (setting [4]) was in the range of 0.01 to 1 nM.

In turn, `CN1C2CCC1CN(c1cncc(-c3cc(F)cc(-c4ccc(-n5ccn(C)c5=O)c(Cl)c4)c3O)c1)C2` [Example 514, 1-(3-chloro-5′-fluoro-2′-hydroxy-3′-(5-(8-methyl-3,8-diazabicyclo[3.2.1]octan-3-yl)pyridin-3-yl)-[1,1′-biphenyl]-4-yl)-3-methyl-1H-imidazol-2(3H)-one] returned a concentration for 50% growth inhibition (GI50) in test [1] (setting [3]) of 0.3 to 30 nM. For the same compound, in test [2] (setting [4]), the half-inhibitory concentration (IC50) lay in the range of 1 to 10 nM.

In test [1] (setting [3]), `Cn1ccn(-c2ccc(-c3cc(F)cc(-c4ccnc(N5CCN(C[C@H](O)CO)CC5)c4)c3O)cc2Cl)c1=O` [Example 621, (S)-1-(3-chloro-3′-(2-(4-(2,3-dihydroxypropyl)piperazin-1-yl)pyridin-4-yl)-5′-fluoro-2′-hydroxy-[1,1′-biphenyl]-4-yl)-3-methyl-1H-imidazol-2(3H)-one] came in with a GI50 of 0.3 to 30 nM. For the same compound, in test [2] (setting [4]), the IC50 lay within 0.01 to 1 nM.

The compound `CC1=CCN(c2ccc(-c3cc(F)cc(-c4ccnc(N5CCNCC5)c4)c3O)cc2Cl)C1=O` [Example 366, 1-(3-chloro-5′-fluoro-2′-hydroxy-3′-(2-(piperazin-1-yl)pyridin-4-yl)-[1,1′-biphenyl]-4-yl)-3-methyl-1,5-dihydro-2H-pyrrol-2-one] showed a GI50 in test [1] (setting [3]) of 30 to 300 nM. In test [2] (setting [4]), the IC50 fell in the range of 1 to 10 nM.

`Cc1ncc(-c2cc(F)cc(-c3ccc(-n4ccn(C)c4=O)c(Cl)c3)c2O)cc1N1CCN(C2CCC2)CC1` [Example 883]: in test [1] (setting [5]), the GI50 lay within 0.3 to 30 nM. Also, the IC50 in test [2] (setting [6]) is 1 to 10 nM.

For `Cc1cc(-c2cc(F)cc(-c3ccc(-n4ccn(C)c4=O)c(Cl)c3)c2O)cc(N2CCN(C(C)C)CC2)n1` [Example 703, 1-(3-chloro-5′-fluoro-2′-hydroxy-3′-(2-(4-isopropylpiperazin-1-yl)-6-methylpyridin-4-yl)-[1,1′-biphenyl]-4-yl)-3-methyl-1H-imidazol-2(3H)-one], the 50% growth inhibitory concentration (GI50) in test [1] (setting [3]) lay within 0.3 to 30 nM. The IC50 in test [2] (setting [4]) lay in the range of 1 to 10 nM.

`Cn1ccn(-c2ccc(-c3cc(F)cc(-c4ccnc(N5CCCC6(CCN6)C5)c4)c3O)cc2Cl)c1=O` (stereo not shown) [Example 688, 1-(3′-(2-(1,6-diazaspiro[3.5]nonan-6-yl)pyridin-4-yl)-3-chloro-5′-fluoro-2′-hydroxy-[1,1′-biphenyl]-4-yl)-3-methyl-1H-imidazol-2(3H)-one] came in with a GI50 in test [1] (setting [3]) of 0.3 to 30 nM. Moreover, in test [2] (setting [4]), the IC50 was in the range of 0.01 to 1 nM.

Consider `Cn1ccn(-c2ccc(-c3ccnc(-c4cnc(N)c(N5CCN(C(C)(C)C)CC5)c4)c3O)cc2Cl)c1=O` [Example 984, 1-(4-(6′-amino-5′-(4-(tert-butyl)piperazin-1-yl)-3-hydroxy-[2,3′-bipyridin]-4-yl)-2-chlorophenyl)-3-methyl-1H-imidazol-2(3H)-one], for which the GI50 in test [1] (setting [5]) lay within 0.3 to 30 nM. The half-maximal inhibitory concentration (IC50) in test [2] (setting [6]) lay within 10 to 100 nM.

For `CN1CCC12CCCN(c1cc(-c3cc(F)cc(-c4ccc(-n5ccn(C)c5=O)c(Cl)c4)c3O)ccn1)C2` (stereo not shown) [Example 693, 1-(3-chloro-5′-fluoro-2′-hydroxy-3′-(2-(1-methyl-1,6-diazaspiro[3.5]nonan-6-yl)pyridin-4-yl)-[1,1′-biphenyl]-4-yl)-3-methyl-1H-imidazol-2(3H)-one], in test [1] (setting [3]), the concentration for 50% growth inhibition (GI50) fell in the range of 0.3 to 30 nM. Moreover, the IC50 in test [2] (setting [4]) lay within 0.01 to 1 nM.

As to `Cn1ccn(-c2ccc(-c3cc(F)cc(-c4ccnc(N5CCC6(CCCO6)C5)c4)c3O)cc2Cl)c1=O` (stereo not shown) [Example 683, 1-(3′-(2-(1-oxa-7-azaspiro[4.4]nonan-7-yl)pyridin-4-yl)-3-chloro-5′-fluoro-2′-hydroxy-[1,1′-biphenyl]-4-yl)-3-methyl-1H-imidazol-2(3H)-one], the GI50 in test [1] (setting [3]) fell in the range of 30 to 300 nM. Further, the IC50 in test [2] (setting [4]) was 0.01 to 1 nM.

With `Cn1ccn(-c2ccc(-c3cc(F)cc(-c4cc(-c5cn[nH]c5)cc(N5CCNCC5)c4)c3O)cc2Cl)c1=O` [Example 571], the GI50 in test [1] (setting [3]) was 0.3 to 30 nM. In test [2] (setting [4]), the IC50 lay in the range of 1 to 10 nM.

For `Cn1ccn(-c2ccc(-c3cc(F)cc(-c4ccnc(N5CC(F)(F)[C@@](C)(O)C5)c4)c3O)cc2Cl)c1=O` [Example 882], the GI50 in test [1] (SKM-1 antiproliferation assay) lay within 0.3 to 30 nM. Also, the IC50 in test [2] (setting [6]) lay within 1 to 10 nM.

In test [1] (setting [5]), `Cn1ccn(-c2ccc(-c3ccnc(-c4cccc(N5CCN(C(C)(C)C)CC5)c4)c3O)cc2Cl)c1=O` [Example 979, 1-(4-(2-(3-(4-(tert-butyl)piperazin-1-yl)phenyl)-3-hydroxypyridin-4-yl)-2-chlorophenyl)-3-methyl-1H-imidazol-2(3H)-one] showed a concentration for 50% growth inhibition (GI50) of 0.3 to 30 nM. Besides, in test [2] (setting [6]), the IC50 fell in the range of 1 to 10 nM.

`Cn1ccn(-c2ccc(-c3cc(F)cc(-c4cncc(N5CC[C@](C)(N)C5)c4)c3O)cc2Cl)c1=O` [Example 746, (S)-1-(3′-(5-(3-amino-3-methylpyrrolidin-1-yl)pyridin-3-yl)-3-chloro-5′-fluoro-2′-hydroxy-[1,1′-biphenyl]-4-yl)-3-methyl-1H-imidazol-2(3H)-one] displayed a GI50 in test [1] (setting [3]) of 0.3 to 30 nM. Moreover, the IC50 in test [2] (setting [4]) fell in the range of 0.01 to 1 nM.

On to `Cn1ccn(-c2ccc(-c3cc(F)cc(-c4cccc(N5CCN(C(C)(C)C)CC5)c4)c3O)cc2F)c1=O` [Example 945, 1-(3″-(4-(tert-butyl)piperazin-1-yl)-3,5′-difluoro-2′-hydroxy-[1,1′:3′,1″-terphenyl]-4-yl)-3-methyl-1H-imidazol-2(3H)-one], for which, in test [1] (setting [5]), the GI50 fell in the range of 0.3 to 30 nM. For the same compound, the IC50 in test [2] (setting [6]) was in the range of 1 to 10 nM.

With `Cn1ccn(-c2ccc(-c3cc(F)cc(-c4ccnc(N5CC(C)(O)C6(CC6)C5)c4)c3O)cc2Cl)c1=O` (stereo not shown) [Example 779, 1-(3-chloro-5′-fluoro-2′-hydroxy-3′-(2-(7-hydroxy-7-methyl-5-azaspiro[2.4]heptan-5-yl)pyridin-4-yl)-[1,1′-biphenyl]-4-yl)-3-methyl-1H-imidazol-2(3H)-one], the GI50 in test [1] (setting [3]) was in the range of 0.3 to 30 nM. The IC50 in test [2] (setting [4]) was in the range of 1 to 10 nM.

With `Cc1ncc(-c2cc(F)cc(-c3ccc(-n4ccn(C)c4=O)c(Cl)c3)c2O)cc1N1CC[C@@](C)(O)C1` [Example 825, (R)-1-(3-chloro-5′-fluoro-2′-hydroxy-3′-(5-(3-hydroxy-3-methylpyrrolidin-1-yl)-6-methylpyridin-3-yl)-[1,1′-biphenyl]-4-yl)-3-methyl-1H-imidazol-2(3H)-one], in test [1] (setting [3]), the 50% growth inhibitory concentration (GI50) is 0.3 to 30 nM. Moreover, the IC50 in test [2] (setting [4]) lay in the range of 0.01 to 1 nM.

The compound `COc1ncc(-c2cc(F)cc(-c3ccc(-n4ccn(C)c4=O)c(Cl)c3)c2O)cc1N1CC2(CC2)[C@](C)(O)C1` [Example 875] showed a GI50 in test [1] (setting [5]) of 0.3 to 30 nM. In addition, the 50% inhibitory concentration (IC50) in test [2] (setting [6]) lay within 0.01 to 1 nM.

Compound `O=C1CCCCN1c1ccc(-c2cccc(-c3ccnc(N4CCNCC4)c3)c2O)cc1F` [Example 263, 1-(3-fluoro-2′-hydroxy-3′-(2-(piperazin-1-yl)pyridin-4-yl)-[1,1′-biphenyl]-4-yl)piperidin-2-one] displayed a concentration for 50% growth inhibition (GI50) in test [1] (setting [3]) of 300 to 3000 nM. In addition, the IC50 in test [2] (setting [4]) is 10 to 100 nM.

`CC(=O)NCCOc1ncc(-c2cc(F)cc(-c3ccc(N4CCN(C)C4=O)c(Cl)c3)c2O)cc1N1CCNCC1` [Example 396, N-(2-((5-(3′-chloro-5-fluoro-2-hydroxy-4′-(3-methyl-2-oxoimidazolidin-1-yl)-[1,1′-biphenyl]-3-yl)-3-(piperazin-1-yl)pyridin-2-yl)oxy)ethyl)acetamide] displayed a GI50 in test [1] (setting [3]) of 30 to 300 nM. The half-inhibitory concentration (IC50) in test [2] (setting [4]) lay in the range of 1 to 10 nM.
